From patent US12059425B2, “Heterocyclic compounds and uses thereof” (Kumquat Biosciences Inc., priority 2022, dated 2024) come the findings set out here.

pIC50: −log10 of the molar value.

One assay concerns the target T1, K-Ras G12D (Homo sapiens, UniProt P01116, G12D).
T1 construct: made in house; host or cells: E. coli, e.g. BL21 (DE3)
Nature of the assay: PPI-HTRF assay, K-Ras G12D / SOS1 interaction. Particulars: HTRF, K-Ras G12D; read-out: PPI-HTRF-5 nM (K-Ras G12D IC50). The format is biochemical. An excerpt: (§1) This assay can be also used to assess a selective inhibition or reduction of signaling output of a mutant Ras protein relative to a wildtype, or relative to a different mutant Ras protein. For example, the equilibrium interaction of wildtype Kras or K-Ras mutant (e.g., wildtype or a mutant thereof) with SOS1 (e.g., hSOS1) can be assessed as a proxy or an indication for a subject compound's ability to bind and inhibit Ras protein. HTRF assay detects from (i) a fluorescence resonance energy transfer (FRET) donor (e.g., antiGST-Europium) that is bound to GST-tagged K-Ras mutant to (ii) a FRET acceptor (e.g., anti-6His-XL665) bound to a His-tagged hSOS1.
(§2) The assay buffer can contain ˜5 mM HEPES pH 7.4, ˜150 mM NaCl, ˜1 mM DTT, 0.05% BSA and 0.0025% (v/v) Igepal. A Ras working solution is prepared in an assay buffer containing typically a suitable amount of the protein construct (e.g., GST-tagged K-Ras mutant) and the FRET donor (e.g., antiGST-Eu(K) from Cisbio, France). A SOS1 working solution is prepared in an assay buffer containing suitable amount of the protein construct (e.g., His-hSOS1) and the FRET acceptor (e.g., anti-6His-XL665 from Cisbio, France). A suitable amount of the protein construct will depend on the range of activity or range of IC50 values being detected or under investigation. For detecting IC50 within a range of 500 nM, the protein constructs of the same range of molarity can be utilized.
(§3) A fixed volume of DMSO with or without test compound is transferred into a 384-well plate. Ras working solution is added to all wells of the test plate. SOS1 working solution is added to all wells except for those that are subsequently filled the inhibitor control solution. Upon incubation for about 10 minutes or longer, the fluorescence is measured with a M1000Pro plate reader (Tecan) using HTRF detection (excitation 337 nm, emission 1: 620 nm, emission 2: 665 nm). Compounds are tested in duplicate at different concentrations (for example, 10 μM, 2.5 μM, 0.63 μM, 0.16 μM, 0.04 μM, 0.01 μM test compound). The ratiometric data (i.e., emission 2 divided by emission 1) is used to calculate IC50 values against Ras using GraphPad Prism (GraphPad software). Following this general procedure, samples are tested with or without a subject compound disclosed herein including compounds exemplified in Table 1 to assess their abilities to inhibit a mutant K-Ras relative to another K-Ras (e.g., different mutant or wildtype). Signaling output measured in terms of IC50 values can be obtained, a ratio of IC50 against one mutant relative to another mutant can be calculated. For instance, a selective reduction of K-Ras G12D signaling output can be evidenced by a ratio greater than one. In particular, a selective reduction of K-Ras G12D signaling relative to K-Ras WT signaling is evidenced if the ratio of IC50 (against K-Ras WT) to IC50 (against K-Ras G12D) is greater than 1.

Another assay deals with SW620 cells. The experiment in a line: Ras cellular assay, cell proliferation SW620. The format is cell-based. Particulars: Homo sapiens, SW-620. An excerpt: (§4) For example, this assay can be also used to assess selective growth inhibition of a mutant Ras protein relative to a wildtype, or relative to a different mutant Ras protein.
In another assay the test system is GP2D cells. The experiment in a line: Ras cellular assay, cell proliferation GP2D. The format is cell-based. The protocol: as §4
ASPC-1 (ATCC CRL-1682), Panc-10.05 (ATCC CRL-2547), A427, GP2d cell lines or any other cell lines comprising a G12D mutation can be used to assess Ras cellular signaling in vitro, e.g., in response to a compound described herein. For example, ASPC-1 culture medium is prepared with RPMI-1640 and 10% heat-inactivated FBS. Panc-10.05 culture medium is prepared with RPMI-1640, 10 Units/mL human recombinant insulin, and 10% FBS. A427 cell culture is prepared with RPMI-1640 and 10% heat-inactivated FBS. A CellTiter-Glo (CTG) luminescent based assay (Promega) is used to assess growth of the cells, as a measurement of the ability of the compounds herein to inhibit Ras signaling in the cells. The cells (e.g., 800 per well) are seeded in their respective culture medium in standard tissue culture-treated 384-well format plates (Falcon #08-772-116) or ultra-low attachment surface 384-well format plates (S-Bio #MS-9384UZ). The day after plating, cells are treated with a dilution series (e.g., a 9 point 3-fold dilution series) of the compounds herein (e.g., approximately 40 μL final volume per well). Cell viability can be monitored (e.g., approximately 5 days later) according to the manufacturer's recommended instructions, where the CellTiter-Glo reagent is added (e.g., approximately 10 μL), vigorously mixed, covered, and placed on a plate shaker (e.g., approximately for 20 min) to ensure sufficient cell lysis prior to assessment of luminescent signal. The IC50 values are determined using the four parameter fit. The resulting IC50 value is a measurement of the ability of the test compound to reduce cell growth of Ras-driven cells (e.g., tumor cell lines) in vitro and/or in vivo.

In a further assay the target is T2, wildtype K-Ras (Homo sapiens, UniProt P01116).
T2 construct: made in house; host or cells: E. coli, e.g. BL21 (DE3)
T2 sequence (P01116 1-188 isoform P01116-2): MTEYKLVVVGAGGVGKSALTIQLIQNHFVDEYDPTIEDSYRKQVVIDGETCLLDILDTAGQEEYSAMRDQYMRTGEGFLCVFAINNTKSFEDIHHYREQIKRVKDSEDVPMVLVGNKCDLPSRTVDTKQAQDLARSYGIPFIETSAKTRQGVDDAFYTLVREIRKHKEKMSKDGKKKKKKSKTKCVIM
Nature of the assay: PPI-HTRF assay, wildtype K-Ras / SOS1 interaction. The format is biochemical. Particulars: HTRF, K-Ras wt; read-out: PPI-HTRF-5 nM (K-Ras wt IC50).
Text: as §1, §2, §3
On the technique in general: Time-resolved FRET reads energy transfer from a long-lived donor to a nearby acceptor.

Another assay has as its target T3, K-Ras G12S (Homo sapiens, UniProt P01116, G12S).
T3 construct: made in house; host or cells: E. coli, e.g. BL21 (DE3)
Nature of the assay: PPI-HTRF assay, K-Ras G12S / SOS1 interaction. The format is biochemical. To be noted: read-out: PPI-HTRF-5 nM (K-Ras G12S IC50).
Text: as §1, §2, §3

Another assay has as its target T4, K-Ras G12V (Homo sapiens, UniProt P01116, G12V).
T4 construct: made in house; host or cells: E. coli, e.g. BL21 (DE3)
The experiment in a line: PPI-HTRF assay, K-Ras G12V / SOS1 interaction. The format is biochemical. Particulars: HTRF, K-Ras G12V; read-out: PPI-HTRF-5 nM (K-Ras G12V IC50).
Text: as §1, §2, §3

T3 sequence (P01116 1-188 isoform P01116-2 G12S): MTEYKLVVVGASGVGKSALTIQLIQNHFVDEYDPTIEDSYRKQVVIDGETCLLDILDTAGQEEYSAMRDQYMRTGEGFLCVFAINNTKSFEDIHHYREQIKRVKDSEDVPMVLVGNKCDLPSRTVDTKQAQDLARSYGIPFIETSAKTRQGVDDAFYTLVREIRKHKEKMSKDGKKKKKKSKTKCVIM
T4 sequence (P01116 1-188 isoform P01116-2 G12V): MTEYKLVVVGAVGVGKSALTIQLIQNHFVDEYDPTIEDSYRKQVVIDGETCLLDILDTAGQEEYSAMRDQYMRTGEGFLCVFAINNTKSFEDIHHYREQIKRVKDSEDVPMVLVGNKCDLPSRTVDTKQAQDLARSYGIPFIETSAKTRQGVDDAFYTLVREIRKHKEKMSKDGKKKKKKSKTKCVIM
T1 sequence (P01116 1-188 isoform P01116-2 G12D): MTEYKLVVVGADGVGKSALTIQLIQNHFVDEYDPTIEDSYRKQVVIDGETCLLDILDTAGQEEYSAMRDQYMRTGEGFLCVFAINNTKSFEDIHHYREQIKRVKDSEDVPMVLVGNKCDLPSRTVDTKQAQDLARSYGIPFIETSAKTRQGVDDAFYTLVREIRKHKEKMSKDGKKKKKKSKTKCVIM

By pIC50 is commonly meant the negative decadic logarithm of the IC50, by convention in mol/L. For the compound `N#Cc1c(N)sc2c(F)ccc(-c3c(Cl)c4c5c(nc(OC[C@@]67CCCN6C[C@H](F)C7)nc5c3F)N(CC(F)F)CC3COCC3O4)c12` (stereo partly drawn) [compound 112, 2-amino-4-(1-chloro-7-(2,2-difluoroethyl)-3-fluoro-5-(((2R,7aS)-2-fluorotetrahydro-1H-pyrrolizin-7a(5H)-yl)methoxy)-7,8,8a,9,11,11a-hexahydrofuro[3′,4′:7,8][1,5]oxazocino [4,3,2-de]quinazolin-2-yl)-7-fluorobenzo[b]thiophene-3-carbonitrile], the negative logarithm of the IC50 (pIC50) on K-Ras G12D was above 5.30; with SW620 cells, above 5.30; with GP2D cells it was below 5.30; at wildtype K-Ras, above 5.30; at K-Ras G12S, above 5.30; on K-Ras G12V, above 5.30.
On to `CN(C)CCN1c2nc(OC[C@@]34CCCN3C[C@H](F)C4)nc3c(F)c(-c4ccc(F)c5sc(N)c(C#N)c45)c(Cl)c(c23)OCC2COCC21` (stereo partly drawn) [compound 106, 2-amino-4-(6-chloro-12-(2-(dimethylamino)ethyl)-4-fluoro-2-(((2R,7aS)-2-fluorotetrahydro-1H-pyrrolizin-7a(5H)-yl)methoxy)-8a,9,11a,12-tetrahydro-8H,11H-furo[3′,4′:6,7][1,5]oxazocino[4,3,2-de]quinazolin-5-yl)-7-fluorobenzo[b]thiophene-3-carbonitrile], for which the pIC50 at K-Ras G12D, with SW620 cells, in the assay with GP2D cells, at wildtype K-Ras, on K-Ras G12S and on K-Ras G12V was above 5.30 throughout.
In the case of `CC1Oc2c(Cl)c(-c3ccc(F)c4sc(N)c(C#N)c34)c(F)c3nc(OC[C@@]45CCCN4C[C@H](F)C5)nc(c23)N(C)C2COCC12` (stereo partly drawn) [compound 104], the pIC50 at K-Ras G12D, in the assay on SW620 cells, in the assay with GP2D cells, on wildtype K-Ras, at K-Ras G12S and on K-Ras G12V was above 5.30 each time.
With `CC(CN(C)C)N1c2nc(OC[C@@]34CCCN3C[C@H](F)C4)nc3c(F)c(-c4ccc(F)c5sc(N)c(C#N)c45)c(Cl)c(c23)OCC2COCC21` (stereo partly drawn) [compound 102, 2-amino-4-(6-chloro-12-(1-(dimethylamino)propan-2-yl)-4-fluoro-2-(((2R,7aS)-2-fluorotetrahydro-1H-pyrrolizin-7a(5H)-yl)methoxy)-8a,9,11a,12-tetrahydro-8H,11H-furo[3′,4′:6,7][1,5]oxazocino[4,3,2-de]quinazolin-5-yl)-7-fluorobenzo[b]thiophene-3-carbonitrile], the negative-log IC50 (pIC50) at K-Ras G12D is above 5.30; in the assay with SW620 cells, below 5.30; in the assay with GP2D cells it was above 5.30; on wildtype K-Ras, above 5.30; at K-Ras G12S, above 5.30; on K-Ras G12V it was above 5.30.
Take `N#Cc1c(N)sc2c(F)ccc(-c3c(Cl)c4c5c(nc(OC[C@@]67CCCN6C[C@H](F)C7)nc5c3F)N3C[C@H](NC(=O)[C@H]5CN5)C[C@H]3CO4)c12` [compound 111, (2R)-N-((2R,12aS)-9-(2-amino-3-cyano-7-fluorobenzo[b]thiophen-4-yl)-10-chloro-8-fluoro-6-(((2R,7aS)-2-fluorotetrahydro-1H-pyrrolizin-7a(5H)-yl)methoxy)-2,3,12,12a-tetrahydro-1H-pyrrolo[2′,1′:,4][1,4]oxazepino[5,6,7-de]quinazolin-2-yl)aziridine-2-carboxamide]: the pIC50 on K-Ras G12D is above 5.30; in the assay with SW620 cells it was below 5.30; in the assay with GP2D cells, below 5.30; at wildtype K-Ras, above 5.30; at K-Ras G12S, above 5.30; on K-Ras G12V it was above 5.30.
Consider `CNC1CCN2c3nc(OC[C@@]45CCCN4C[C@H](F)C5)nc4c(F)c(-c5ccc(F)c6sc(N)c(C#N)c56)c(Cl)c(c34)OCCC2C1` (stereo partly drawn) [compound 158, 2-amino-4-(3-chloro-1-fluoro-13-(((2R,7aS)-2-fluorotetrahydro-1H-pyrrolizin-7a(5H)-yl)methoxy)-8-(methylamino)-6,6a,7,8,9,10-hexahydro-5H-pyrido[11,2′:5,6][1,5]oxazocino[4,3,2-de]quinazolin-2-yl)-7-fluorobenzo[b]thiophene-3-carbonitrile], for which the pIC50 at K-Ras G12D is above 5.30; in the assay on SW620 cells it was above 5.30; in the assay with GP2D cells, below 5.30; at wildtype K-Ras it was above 5.30; on K-Ras G12S it was above 5.30; on K-Ras G12V, above 5.30.
`CN1CC2COCC2Oc2c(Cl)c(-c3ccc(F)c4sc(N)c(C#N)c34)c(F)c3nc(OC[C@@]45CCCN4C[C@H](F)C5)nc1c23` (stereo partly drawn) [compound 113, 2-amino-4-(1-chloro-3-fluoro-5-(((2R,7aS)-2-fluorotetrahydro-1H-pyrrolizin-7a(5H)-yl)methoxy)-7-methyl-7,8,8a,9,11,11a-hexahydrofuro[3′,4′:7,8][1,5]oxazocino[4,3,2-de]quinazolin-2-yl)-7-fluorobenzo[b]thiophene-3-carbonitrile]: the pIC50 on K-Ras G12D, in the assay on SW620 cells, in the assay on GP2D cells, on wildtype K-Ras, on K-Ras G12S and on K-Ras G12V was above 5.30 in each case.
For the compound `N#Cc1c(N)sc2c(F)ccc(-c3c(Cl)c4c5c(nc(OC[C@@]67CCCN6C[C@H](F)C7)nc5c3F)N3C[C@H](O)C[C@@H]3CCO4)c12` [compound 164, 2-amino-4-((2R,13aS)-10-chloro-8-fluoro-6-(((2R,7aS)-2-fluorotetrahydro-1H-pyrrolizin-7a(5H)-yl)methoxy)-2-hydroxy-1,2,3,12,13,13a-hexahydropyrrolo[1′,2′:5,6][1,5]oxazocino [4,3,2-de]quinazolin-9-yl)-7-fluorobenzo[b]thiophene-3-carbonitrile], the pIC50 at K-Ras G12D, in the assay on SW620 cells, with GP2D cells, at wildtype K-Ras, at K-Ras G12S and on K-Ras G12V was above 5.30 each time.
